The values that follow come from paper PMC7188855, “Nucleic acid recognition and antiviral activity of 1,4-substituted terphenyl compounds mimicking all faces of the HIV-1 Rev protein positively-charged α-helix” (Scientific Reports, 2020).

The test system of one data set is high-order RRE-Rev. The experiment in a line: EMSA of full-length RRE-Rev ribonucleoprotein formation. In kind it is binding, HIV-1. The conditions noted are these: 78 nM RRE, 1.32 μM Rev, 300 mM KCl, 1 mM MgCl2, band of high-order complexes. The source says: After the high-affinity interaction between RRE subdomain IIB and the Rev34–50 helix of the first Rev monomer is established, the RRE-Rev ribonucleoprotein is formed by the incorporation of additional Rev units binding to further sites in the RRE (Fig. 3B, right)[9],[10],[13]. Using an electrophoretic mobility shift assay (EMSA) involving full-length RRE and Rev, we also evaluated whether 1,4-terphenyl compounds were capable of interfering with the formation of the ribonucleoprotein. […] The effect was particularly prominent for high-order complexes (containing a greater number of Rev monomers), but the inhibition of low-order complexes by 1d was also detected at concentrations consistent with the IC50 value measured in the IIB-Rev34–50 displacement experiment. Compounds 1b and 3c exerted a weaker effect on the RRE-Rev complex, in agreement with the results obtained in the displacement experiments monitored by fluorescence anisotropy (Fig. 3B and Table 1).
(§1) The experiments monitoring RRE-Rev inhibition utilized 78 nM full-length RRE and 1.32 μM full-length Rev dissolved in 10 mM HEPES pH 7.5, 300 mM KCl, 1 mM MgCl2 and 0.5 mM EDTA binding buffer, and increasing concentrations of each compound up to 50 μM[21],[39]. The reactions were incubated at room temperature for 20 minutes and loaded onto 8% polyacrylamide gels with TB running buffer. Gels were run at 4 °C for 1–4 hours at 150 V, and the bands were stained with SYBR gold and quantified with Quantity One 4.1 analysis software. Experiments monitoring binding to the 58-base pair HIV-1 LTRc core segment utilized 20 nM LTRc duplex dissolved in the same binding buffer, and increasing concentrations of each compound. The reactions were similarly incubated and loaded onto 20% polyacrylamide gels with TB running buffer. The gels were run at 4 °C for 3.5 hours at 150 V, and the bands were stained and quantified as described above. The specificity of LTRc association was evaluated by duplicating the experiments in the presence of a 100-fold molar excess of DNAd duplex (28-fold base-pair molar excess). In all cases, we monitored the disappearance of the band corresponding to high-order RRE-Rev complexes or free LTRc, and 50% response RC50 values were determined with Prism by fitting the data to a sigmoidal inhibitory model: I−Imin=ImaxC/1+C/RC50 where I is the intensity of the band corresponding to LTRc or high-order RRE-Rev species at compound concentration C, Imax the best-fit value for maximum intensity, and Imin the minimum intensity obtained at the highest concentration of inhibitor. All EMSA experiments were repeated three times for each compound.

A further data set relates to HIV-1. The experiment in a line: Cellular HIV-1 infection assay (NL4.3-Ren, MT-2 cells). The conditions noted are these: Human immunodeficiency virus 1, MT2, 48 h post-infection. In kind it is cell-based. As for the experimental part:
(§2) The methodology used to perform and analyse these experiments has been reported elsewhere[7],[21],[22]. Briefly, infectious supernatants were obtained from transfection of plasmid pNL4.3-Ren on 293 T cells, MT-2 cells were infected with these supernatants in the presence of the compounds, and anti-HIV activity quantification was performed 48 h post-infection by determining luciferase activity in cell lysates compared to a non-treated control (100%). Cellular viability was evaluated in mock infected cells similarly treated with the same concentrations of compounds using the CellTiterGlo (Promega) assay.

A further data set relates to HIV-1 LTR promoter. Briefly: Transfection of pLTR-luc in MT-2 cells. The conditions noted are these: Human immunodeficiency virus 1, MT2, 48 h, read-out: EC50 transfection HIV-1 LTR.
Data set [1] is described as follows: Cellular viability (CellTiterGlo) in mock infected cells. In kind it is cell-based. The conditions noted are these: human, mock infected MT-2 cells. As for the experimental part: as §2
A general note: ATP-based viability assays read luminescence as a measure of living cells.

The test system of data set [2] is LTRc, core region of the HIV-1 LTR promoter. Briefly: EMSA of association to LTRc DNA. In kind it is binding. The conditions noted are these: 20 nM LTRc duplex; 10 mM HEPES pH 7.5, 300 mM KCl, 1 mM MgCl2, 0.5 mM EDTA. How it is done:
as §1
Background: In EMSA bound probe runs differently from free probe, usually more slowly.

Data set [3] deals with full length proviral HIV-1 (NL4.3-luc). Briefly: Transfection of full-length proviral HIV-1 (NL4.3-luc) in MT-2 cells. The conditions noted are these: Human immunodeficiency virus 1, MT2, 48 h, read-out: EC50 transfection HIV-1. In kind it is cell-based.
Data set [4] addresses RRE subdomain IIB-Rev34–50. Briefly: Fluorescence anisotropy displacement of the IIBh-Rev34–50 interaction. The conditions noted are these: read-out: IC50, RRE subdomain IIB-Rev34–50, 60 nM IIBh, 10 nM frevp, 100 mM KCl, 20 mM NaCl, 2 mM MgCl2. On the technique in general: Polarisation of emitted light reports the rotation of a fluorescent probe.
Method: These experiments were conducted in a Victor X5 (PerkinElmer) plate reader as described before[7],[21], using 10 nM frevp and 60 nM IIBh. […] Each fluorescence anisotropy experiment was repeated at least two times.
Data set [5] deals with TARh hairpin containing the HIV-1 Tat-binding UCU bulge. Briefly: Fluorescence intensity binding to control TARh hairpin. The settings on record: for Kd(TARh)/Kd(IIBh): low ionic strength, 10 mM sodium phosphate pH 6.6, uses Kd1. An excerpt:
To evaluate the specificity of subdomain IIB recognition, we measured binding to a control TARh hairpin containing the HIV-1 Tat-binding UCU bulge[23] (Fig. 1D). […] We further assessed specificity by duplicating the IIBh-23fl association experiments in the presence of a 10-fold molar excess of tRNA^Lys or a 26-base pair LTRd DNA duplex. The binding curves of the compounds were affected by the presence of competitive tRNA^Lys and to a lesser extent by LTRd (Figs. 4A, S4 and S5 and Tables 2 and S2).
These experiments measured association to IIBh-23fl or TARh-8fl RNA molecules labelled with fluorescein at extrahelical loop nucleotides U23 and U8, respectively (Fig. 1D), and were carried out under two different ionic conditions in a Victor X5 plate reader, using excitation and emission wavelengths of 485 and 520 nm, respectively. We also attempted to measure association to an alternative IIBh hairpin containing 2-aminopurine instead of adenine at unpaired loop IIB residue A19[21], but all terphenyls fluoresced at the excitation wavelength of this fluorophore. IIBh-23fl or TARh-8fl (at 100 nM concentration) was equilibrated for 5 minutes after each ligand addition in a buffer containing either 10 mM sodium phosphate pH 6.6 and 0.1 mM EDTA or 10 mM HEPES pH 7.5, 200 mM KCl and 2 mM MgCl2. In addition to the TARh specificity control, the RNA and DNA specificity of the IIBh interactions was assessed by duplicating the experiments in the presence of a 10-fold molar excess (1 μM) of either tRNA^Lys or DNA duplex LTRd. The equilibrium dissociation constants Kd were determined by fitting the fluorescence intensity curves with DYNAFIT[40]. We used one-site, two independent-sites and two interacting-sites binding models for all curves, and the best model was automatically selected by model discrimination analysis, except where indicated. The final graphs were plotted with Prism. All fluorescence intensity experiments were performed at least two times for each compound and condition.

Another data set relates to HTLV-1 LTR promoter. The experiment in a line: Transfection of pLTR(HTLV)-luc in MT-2 cells. The settings on record: Primate T-lymphotropic virus 1, MT2, 48 h, read-out: EC50 transfection HTLV LTR.
Where [6] appears, read: 10 mM sodium phosphate pH 6.6, 0.1 mM EDTA, read-out: Kd (TARh), one-site or first-site Kd1.
The mark [7] stands for this setting: higher ionic strength, 10 mM HEPES pH 7.5, 200 mM KCl, 2 mM MgCl2.
Where [8] appears, read: higher ionic strength, 10 mM HEPES pH 7.5, 200 mM KCl, 2 mM MgCl2, read-out: Kd (TARh), Table S2.

Broadly, the IC50 is the point on the concentration scale where inhibition reaches its midpoint. One may read the EC50 as the concentration needed to bring the measured effect to its halfway point. What is called CC50 is the concentration giving 50% cytotoxicity. Usually Kd stands for a measure of binding affinity in units of concentration.

Where two headings read alike, the source gives them in different places. Some results are limits rather than exact numbers.

Method for HTLV-1 LTR promoter: To further assess the mechanism of antiviral action of the compounds, we checked whether they also interfered with the regulatory sequences of HTLV-1, a closely related retrovirus.
MT-2 cells were transfected with plasmids containing a luciferase reporter gene whose expression was under the control of the full length proviral HIV-1 (NL4.3-luc), the HIV-1 LTR promoter (pLTR-luc), or the HTLV-1 LTR promoter (pLTR(HTLV)-luc). After transfection, cells were treated with different compound concentrations, and activity quantification was performed 48 h later by determining luciferase activity in cell lysates as described[7],[21],[22].

Turning to `COc1cc(CCN)c(-c2cc(C)c(-c3cc(CCN)c(OC)cc3CCN)cc2C)cc1CCN` [Compound 1a], the 50% inhibitory concentration (IC50) amounted to 6.8 µM with high-order RRE-Rev and 14 µM in data set [4]. Further, the EC50 with HIV-1 was found to be 10.6 µM; with HIV-1 LTR promoter, 7.2 µM; in data set [3], 12.2 µM; in the data set with HTLV-1 LTR promoter, 16.7 µM. The molecule also displayed a CC50 at 48 h in [1] of more than 100 µM. The “association to LTRc (EMSA)” value in data set [2] was “associated to LTRc at low μM concentrations”. For the same molecule, the results for the Kd in data set [5] (setting [6]) and in [5] (setting [8]) were 12 µM and 13 µM, respectively. Further, the “Kd(TARh)/Kd(IIBh), Table S2” value in data set [5] (setting [7]) is 3.0. Further, in data set [5], the “Kd(TARh)/Kd(IIBh)” value is recorded as 12.
Turning to `Cc1cc(-c2cc(CCN)ccc2CCN)c(C)cc1-c1cc(CCN)ccc1CCN` [Compound 1d], the IC50 in the data set on high-order RRE-Rev came out at 3 µM; in data set [4] it was 47 µM. For the same molecule, the EC50 in the data set on HIV-1 was 57.9 µM; with HIV-1 LTR promoter it was 3.2 µM; in [3], 6 µM; in the data set on HTLV-1 LTR promoter, 24.9 µM. The CC50 at 48 h in data set [1] was more than 100 µM. Further, in data set [2], the “association to LTRc (EMSA)” value is reported as “associated to LTRc at low μM concentrations”. Besides, the Kd in [5] (setting [6]) was 22 µM; in data set [5] (10 mM sodium phosphate pH 6.6, 0.1 mM EDTA, two-site model, read-out: Kd (TARh), second-site Kd2 (in brackets)), 22 µM; in data set [5] (setting [8]) it was 32 µM. Besides, the “Kd(TARh)/Kd(IIBh), Table S2” value in [5] (setting [7]) came to 4.3. Moreover, the “Kd(TARh)/Kd(IIBh)” value in data set [5] is 25.
In the case of `Cc1cc(-c2cc(CCN)ccc2CCN)c(C)cc1-c1cccc(CCN)c1` [Compound 3c], the IC50 in the data set on high-order RRE-Rev was more than 50 µM; in [4] it was more than 100 µM. For the same molecule, the 50% effective concentration (EC50) in the data set with HIV-1 came to 14.1 µM; in the data set with HIV-1 LTR promoter, 3.32 µM; in data set [3], 15.4 µM; in the data set on HTLV-1 LTR promoter, 16.4 µM. The cytotoxic concentration (CC50) at 48 h in data set [1] is more than 100 µM. Moreover, the “association to LTRc (EMSA)” value in data set [2] was “associated only very weakly”. Besides, the Kd in data set [5] (setting [6]) was 78 µM; in [5] (setting [8]) it was more than 50 µM. Also, the “Kd(TARh)/Kd(IIBh)” value in data set [5] worked out at 12.
